Data as given in publication PMC9835529, “Investigation of Novel Quinoline–Thiazole Derivatives as Antimicrobial Agents: In Vitro and In Silico Approaches” (ACS Omega, 2022).
Converted amounts (≈) assume the structure as drawn.

What was measured:
E. coli ATCC 25922 = test: Antibacterial broth microdilution (CLSI M07-A9), MIC90; format: cell-based; details: for MIC90: Escherichia coli, ATCC25922
Excerpt: (§1) The broth microdilution procedure specified in the M07-A9 document of the Clinical and Laboratory Standards Institute (CLSI) was used for antibacterial study,[55] and the EDef 7.1 document published by EUCAST was used for the antifungal study.[56] For both activity studies, the detailed procedures were explained in previous studies.[57],[58]

[1] = test system: Escherichia coli ATCC 35218; test: as above; format: cell-based; details: E. coli ATCC 35218; for MIC90: Escherichia coli, ATCC35218
Excerpt: as §1

[2] = test system: Klebsiella pneumoniae NCTC 9633; test: as above; format: cell-based; details: NCTC9633, K. pneumoniae NCTC 9633
Excerpt: as §1

[3] = test system: Salmonella typhimurium ATCC 13311; test: as above; format: cell-based; details: Salmonella enterica; S. typhimurium ATCC 13311
Excerpt: as §1

[4] = test system: Staphylococcus aureus ATCC 6538; test: as above; format: cell-based; details: Staphylococcus aureus, ATCC6538; S. aureus ATCC 6538; read-out: MIC90
Excerpt: as §1

[5] = test system: methicillin-resistant S. aureus (MRSA) (clinical isolate); test: as above; format: cell-based; details: for MIC90: Staphylococcus aureus
Excerpt: as §1

[6] = test system: Candida albicans ATCC 24433; test: Anticandidal broth microdilution (EUCAST EDef 7.1), MIC90; format: cell-based; details: Candida albicans, ATCC24433, C. albicans ATCC 24433; read-out: MIC90
Excerpt: (§2) E. coli (ATCC 35218), E. coli (ATCC 25922), S. aureus (ATCC 6538), methicillin-resistant S. aureus (MRSA) (clinical isolate), S. typhimurium (ATCC 13311), and K. pneumoniae (NCTC 9633) cells for antibacterial effect, and C. albicans (ATCC 24433), C. glabrata (ATCC 90030), C. krusei (ATCC 6258), and C. parapsilosis (ATCC 22019) for the antifungal effect of the final compounds were used to determine the MIC90 values. The broth microdilution procedure specified in the M07-A9 document of the Clinical and Laboratory Standards Institute (CLSI) was used for antibacterial study,[55] and the EDef 7.1 document published by EUCAST was used for the antifungal study.[56] For both activity studies, the detailed procedures were explained in previous studies.[57],[58]

Candida krusei ATCC 6258 = test: as above; format: cell-based; details: Pichia kudriavzevii, ATCC6258, C. krusei ATCC 6258; read-out: MIC90
Excerpt: as §2

[7] = test system: Candida parapsilosis ATCC 22019; test: as above; format: cell-based; details: Lodderomyces parapsilosis, ATCC22019, C. parapsilosis ATCC 22019; read-out: MIC90
Excerpt: as §2

C. glabrata ATCC 90030 = test: as above; format: cell-based, Candida glabrata; details: Nakaseomyces glabratus, ATCC90030, C. glabrata ATCC 90030
Excerpt: as §2

NIH/3T3 cells = test: Cytotoxicity on NIH/3T3 healthy cell line; format: cell-based; details: Mus musculus, NIH3T3, 24 h incubation
Description: NIH/3T3 cells were incubated in Dulbecco’s modified Eagle’s medium (DMEM) (Sigma-Aldrich, St. Louis, MO), added with fetal calf serum, penicillin (100 IU/mL), streptomycin ([…]), and 7.5% NaHCO3 at 37 °C in a humidified atmosphere of 95% air and 5% CO2. NIH/3T3 cells were seeded into the 96-well plates at a density of 1 × 10^4 cells. After 24 h of incubating period, the culture media were removed, and test compounds were added. After 24 h of incubation period, colorimetric measurements were performed by a microplate reader (Biotek) at 540 nm. Inhibition % at all concentrations was determined using the formula below, and the IC50 values were calculated from a dose–response curve obtained by plotting the percentage inhibition versus the log concentration with the use of Microsoft Excel 2013.

E. coli DNA gyrase = target: T1, E. coli DNA gyrase (Escherichia coli, UniProt P0AES4+P0AES6); test: DNA-gyrase supercoiling inhibition by electrophoresis (TopoGen kit); format: biochemical; details: relaxed pHOT1 DNA
T1 construct: purchased TopoGen SKU TG2000G-3
Description: DNA gyrase obtained from E. coli was used to detect the inhibition of the superhelix activity of DNA gyrase. The method was performed according to the kit protocol described by the supplier (SKU TG2000G-3, TopoGen). The detailed procedures were explained in the previous study.[62]

[8] = test system: Lanosterol 14α-demethylase (LMD, CYP51A1); test: LDM (CYP51A1) inhibition by LC-MS-MS quantification of ergosterol level; format: cell-based
Description: The activity of the target compounds was tested against Candida strains via the determination of ergosterol production.
Ergosterol level was determined using the extract of total sterols from C. albicans (and its other species) following the method described by Breivik and Owades.[63] Quantification of the ergosterol level in this extract was carried out by the recently described method.[58],[64]−[66] According to these described studies, in the current work, compounds 4b, 4e, 4f, and 4h–m were undertaken to investigate their action mechanism. Thus, the LC-MS-MS-based method that quantifies the ergosterol level was applied. […]. Ergosterol quantity in negative control samples was regarded as 100%. All concentrations were analyzed in quadruplicate, and the results were expressed as mean ± standard deviation (SD).

[9] = target: T2, human aromatase enzyme (CYP19A) (Homo sapiens, UniProt P11511); test: Aromatase (CYP19A) Inhibitor Screening Kit (Fluorometric); format: biochemical
T2 construct: purchased Bio Vision
T2 sequence (P11511 1-503): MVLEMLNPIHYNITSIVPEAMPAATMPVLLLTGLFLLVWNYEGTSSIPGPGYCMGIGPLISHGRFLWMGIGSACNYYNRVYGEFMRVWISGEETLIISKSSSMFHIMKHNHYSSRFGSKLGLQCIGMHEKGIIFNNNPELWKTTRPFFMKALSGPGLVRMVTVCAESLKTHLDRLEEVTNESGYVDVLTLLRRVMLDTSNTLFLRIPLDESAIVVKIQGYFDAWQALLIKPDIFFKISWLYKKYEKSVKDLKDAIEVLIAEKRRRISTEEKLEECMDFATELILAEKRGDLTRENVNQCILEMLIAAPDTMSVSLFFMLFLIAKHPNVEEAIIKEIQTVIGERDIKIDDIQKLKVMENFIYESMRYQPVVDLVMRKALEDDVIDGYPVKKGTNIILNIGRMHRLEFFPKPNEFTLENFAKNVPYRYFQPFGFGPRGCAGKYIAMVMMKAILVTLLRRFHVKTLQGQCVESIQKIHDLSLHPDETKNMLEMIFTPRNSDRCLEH

T1 sequence (P0AES4 whole entry, one chain of several): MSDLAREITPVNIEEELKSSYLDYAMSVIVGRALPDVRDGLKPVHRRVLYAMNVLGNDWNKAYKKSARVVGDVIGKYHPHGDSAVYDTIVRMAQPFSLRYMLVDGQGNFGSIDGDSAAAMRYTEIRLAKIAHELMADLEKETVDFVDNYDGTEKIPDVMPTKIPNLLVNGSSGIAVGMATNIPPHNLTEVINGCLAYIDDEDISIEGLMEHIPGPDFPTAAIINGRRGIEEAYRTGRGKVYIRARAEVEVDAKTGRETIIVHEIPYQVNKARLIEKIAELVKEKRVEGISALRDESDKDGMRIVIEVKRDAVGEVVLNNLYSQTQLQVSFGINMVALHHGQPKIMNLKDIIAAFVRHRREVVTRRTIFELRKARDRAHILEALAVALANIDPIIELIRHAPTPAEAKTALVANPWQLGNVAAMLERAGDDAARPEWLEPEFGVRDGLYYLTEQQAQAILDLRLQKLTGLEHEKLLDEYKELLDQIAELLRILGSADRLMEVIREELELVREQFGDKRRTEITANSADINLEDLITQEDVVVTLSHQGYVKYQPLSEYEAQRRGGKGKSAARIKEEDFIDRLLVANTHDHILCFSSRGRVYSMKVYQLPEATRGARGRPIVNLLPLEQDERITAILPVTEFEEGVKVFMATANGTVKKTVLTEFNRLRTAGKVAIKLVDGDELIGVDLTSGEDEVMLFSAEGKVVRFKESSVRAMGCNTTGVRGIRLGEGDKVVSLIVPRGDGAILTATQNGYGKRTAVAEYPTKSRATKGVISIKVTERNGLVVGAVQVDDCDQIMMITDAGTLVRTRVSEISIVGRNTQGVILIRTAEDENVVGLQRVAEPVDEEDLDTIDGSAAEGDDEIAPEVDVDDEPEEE

| Compound | times more effective than chloramphenicol (MIC90) (E. coli ATCC 25922) | MIC90 (E. coli ATCC 25922) [µg/mL] | times more effective than chloramphenicol (MIC90) [1] | MIC90 [1] [µg/mL] | MIC90 [2] [µg/mL] | MIC90 [3] [µg/mL] | MIC90 [4] [µg/mL] | times more effective than the standard drug chloramphenicol (MIC90) [5] | MIC90 [5] [µg/mL] | MIC90 [6] [µg/mL] | MIC90 (Candida krusei ATCC 6258) [µg/mL] | MIC90 [7] [µg/mL] | MIC90 (C. glabrata ATCC 90030) [µg/mL] | IC50 (NIH/3T3 cells) [µM] | melting point [°C] | IC50 [9] [µM] | effect on ergosterol production / LMD enzyme inhibition (in words) ([8]; C. parapsilosis) | CYP51A1 Inhibition% ([8]; C. parapsilosis, 0.06 μg/mL) [%] | CYP51A1 Inhibition% ([8]; C. parapsilosis, 0.24 μg/mL) [%] | CYP51A1 Inhibition% ([8]; C. parapsilosis, 0.98 μg/mL) [%] | further results |
| --- | --- | --- | --- | --- | --- | --- | --- | --- | --- | --- | --- | --- | --- | --- | --- | --- | --- | --- | --- | --- | --- |
| COc1ccc(-c2csc(N/N=C/c3cc4cc(OC)ccc4nc3Cl)n2)cc1 [4g] | four times | 3.91 (≈ 9.2 µM) | four times | 7.81 (≈ 18.4 µM) | > 1000 | > 1000 | 7.81 (≈ 18.4 µM) | 8 | 3.91 (≈ 9.2 µM) | > 1000 | 31.2 (≈ 73.5 µM) | 3.91 (≈ 9.2 µM) | 15.6 (≈ 36.8 µM) | 10.4 ± 0.22 | 176 to 180 | – | – | – | – | – | DNA-gyrase inhibition (electrophoresis image) (E. coli DNA gyrase): no peak belonging to the supercoiled DNA |
| COc1ccc2nc(Cl)c(/C=N/Nc3nc(-c4cccc([N+](=O)[O-])c4)cs3)cc2c1 [4i] | – | > 1000 | – | > 1000 | > 1000 | > 1000 | > 1000 | – | > 1000 | 1.95 (≈ 4.43 µM) | 1.95 (≈ 4.43 µM) | 1.95 (≈ 4.43 µM) | 1.95 (≈ 4.43 µM) | 8.54 ± 0.26 | 212 to 214 | 0.033 ± 0.001 | – | – | – | – | effect on ergosterol production / LMD enzyme inhibition (in words) ([8]; C. krusei): did not decrease the ergosterol production compared to the standard drugs; CYP51A1 Inhibition% ([8]; C. krusei, 0.06 μg/mL): 11.662 ± 0.479%; CYP51A1 Inhibition% ([8]; C. krusei, 0.24 μg/mL): 14.178 ± 0.655%; CYP51A1 Inhibition% ([8]; C. krusei, 0.98 μg/mL): 18.361 ± 0.767% |
| COc1ccc2nc(Cl)c(C=NNc3nc(-c4cccc(F)c4)cs3)cc2c1 [4j] | – | > 1000 | – | > 1000 | > 1000 | > 1000 | > 1000 | – | > 1000 | > 1000 | 62.5 (≈ 151 µM) | < 0.06 | > 1000 | 10 ± 0.39 | 221 to 223 | 0.047 ± 0.001 | showed their anticandidal activity via LMD enzyme inhibition | 41.867 ± 0.968 | 55.281 ± 1.174 | 63.508 ± 1.948 | – |
| COc1cccc(-c2csc(N/N=C/c3cc4cc(OC)ccc4nc3Cl)n2)c1 [4k] | – | > 1000 | – | > 1000 | > 1000 | > 1000 | > 1000 | – | > 1000 | 1.95 (≈ 4.59 µM) | 1.95 (≈ 4.59 µM) | 1.95 (≈ 4.59 µM) | 1.95 (≈ 4.59 µM) | 12 ± 0.44 | 217 to 220 | 0.038 ± 0.001 | did not decrease the ergosterol production compared to the standard drugs | 11.449 ± 0.518 | 15.662 ± 0.616 | 17.437 ± 0.861 | – |
| COc1ccc2nc(Cl)c(C=NNc3nc(-c4ccncc4)cs3)cc2c1 [4l] | – | > 1000 | – | > 1000 | > 1000 | > 1000 | > 1000 | – | > 1000 | 1.95 (≈ 4.93 µM) | > 1000 | 1.95 (≈ 4.93 µM) | 1.95 (≈ 4.93 µM) | > 1000 | 250 to 257 | 0.042 ± 0.002 | showed their anticandidal activity via LMD enzyme inhibition | 40.328 ± 1.326 | 56.137 ± 0.928 | 62.949 ± 2.626 | – |
| COc1ccc2nc(Cl)c(C=NNc3nc(-c4cccc5ccccc45)cs3)cc2c1 [4m] | twice | 7.81 (≈ 17.6 µM) | four times | 7.81 (≈ 17.6 µM) | > 1000 | > 1000 | 7.81 (≈ 17.6 µM) | 4 | 7.81 (≈ 17.6 µM) | 1.95 (≈ 4.38 µM) | ≤ 0.06 | 0.24 (≈ 0.539 µM) | 1.95 (≈ 4.38 µM) | 34.5 ± 0.88 | 174 to 179 | – | – | – | – | – | DNA-gyrase inhibition (electrophoresis image) (E. coli DNA gyrase): no peak belonging to the supercoiled DNA; effect on ergosterol production / LMD enzyme inhibition (in words) ([8]; C. krusei): showed their anticandidal activity via LMD enzyme inhibition; CYP51A1 Inhibition% ([8]; C. krusei, 0.06 μg/mL): 48.431 ± 2.036%; CYP51A1 Inhibition% ([8]; C. krusei, 0.24 μg/mL): 61.289 ± 1.461%; CYP51A1 Inhibition% ([8]; C. krusei, 0.98 μg/mL): 70.574 ± 2.648% |
